The text below walks through data of patent publication US10717716B2, “1,3,4-oxadiazole derivative compounds as histone deacetylase 6 inhibitor, and the pharmaceutical composition comprising the same” (Chong Kun Dang Pharmaceutical Corp., priority 2015, dated 2020).

SMILES strings stand for the structures.

The test deals with T1, human recombinant HDAC6 (Homo sapiens, UniProt Q9UBN7).
T1 construct: purchased Calbiochem 382180
T1 sequence (Q9UBN7 1-1215): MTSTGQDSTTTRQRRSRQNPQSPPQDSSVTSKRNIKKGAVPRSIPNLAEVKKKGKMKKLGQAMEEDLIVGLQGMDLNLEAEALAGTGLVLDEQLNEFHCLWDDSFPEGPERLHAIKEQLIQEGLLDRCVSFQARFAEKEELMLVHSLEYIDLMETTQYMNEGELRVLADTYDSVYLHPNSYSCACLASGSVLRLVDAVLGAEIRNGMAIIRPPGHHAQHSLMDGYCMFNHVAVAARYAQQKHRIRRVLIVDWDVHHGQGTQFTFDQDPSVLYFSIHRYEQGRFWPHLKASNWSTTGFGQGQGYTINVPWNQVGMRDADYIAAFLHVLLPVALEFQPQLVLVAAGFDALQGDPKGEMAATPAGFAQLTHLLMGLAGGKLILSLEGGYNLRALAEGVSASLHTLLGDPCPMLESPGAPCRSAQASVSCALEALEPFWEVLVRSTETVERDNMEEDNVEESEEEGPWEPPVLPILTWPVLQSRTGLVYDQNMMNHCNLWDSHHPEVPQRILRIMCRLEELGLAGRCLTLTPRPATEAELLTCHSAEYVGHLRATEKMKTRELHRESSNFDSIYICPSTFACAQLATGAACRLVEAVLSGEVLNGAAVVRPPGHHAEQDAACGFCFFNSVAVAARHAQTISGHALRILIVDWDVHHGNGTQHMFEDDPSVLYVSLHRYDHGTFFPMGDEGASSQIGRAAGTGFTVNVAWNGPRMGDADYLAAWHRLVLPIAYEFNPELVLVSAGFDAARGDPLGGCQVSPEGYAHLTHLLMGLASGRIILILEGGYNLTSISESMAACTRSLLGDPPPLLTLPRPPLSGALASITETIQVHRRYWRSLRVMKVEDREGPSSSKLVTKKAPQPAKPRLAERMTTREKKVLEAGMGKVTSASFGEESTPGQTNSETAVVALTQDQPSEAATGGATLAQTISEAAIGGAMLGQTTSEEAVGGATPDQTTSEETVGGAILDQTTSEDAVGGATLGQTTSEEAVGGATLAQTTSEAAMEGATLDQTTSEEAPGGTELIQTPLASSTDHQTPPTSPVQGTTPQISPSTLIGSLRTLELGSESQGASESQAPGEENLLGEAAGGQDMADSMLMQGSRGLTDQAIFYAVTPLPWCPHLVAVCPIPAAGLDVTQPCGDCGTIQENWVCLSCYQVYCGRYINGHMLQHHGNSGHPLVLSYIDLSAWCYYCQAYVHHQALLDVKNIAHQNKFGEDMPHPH
The test is described as follows: HDAC6 enzyme activity inhibition assay (HDAC Fluorimetric Drug Discovery Kit). It is filed as biochemical. To be noted: for HDAC6 selectivity (fold): HDAC6 over HDAC1; for IC50: human recombinant HDAC6, same protocol as HDAC1, read-out: HDAC6. The essentials: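 Human recombinant HDAC1 or HDAC6 (0.3 μg) reacted with 10 μM Fluor de Lys-SIRT1 substrate and 5-fold compound dilutions for 60 min at 30 °C. Developer II added for 30 min, fluorescence read at Ex 360/Em 460; IC50 calculated from the readings.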

In the case of `CCN1CCN(C(=O)N(Cc2ccc(-c3nnc(C(F)F)o3)cc2)c2cccc(F)c2)CC1` [Compound 21883, N-(4-(5-(Difluoromethyl)-1,3,4-oxadiazol-2-yl)benzyl)-4-ethyl-N-(3-fluorophenyl)piperazine-1-carboxamide], the “HDAC6 selectivity (fold)” value was determined as 268 fold and the IC50 came to 37 nM.
With `CCN1CCN(C(=O)N(Cc2ccc(-c3nnc(C(F)F)o3)cc2F)c2cccc(F)c2)CC1` [Compound 21884, N-(4-(5-(Difluoromethyl)-1,3,4-oxadiazol-2-yl)-2-fluorobenzyl)-4-ethyl-N-(3-fluorophenyl)piperazine-1-carboxamide], the “HDAC6 selectivity (fold)” value was found to be 303 fold and the IC50 came to 33 nM.
In the same order, the values of `CCN1CCN(C(=O)N(Cc2ccc(-c3nnc(C(F)F)o3)cn2)c2cccc(F)c2)CC1` [Compound 21885, N-((5-(5-(Difluoromethyl)-1,3,4-oxadiazol-2-yl)pyridin-2-yl)methyl)-4-ethyl-N-(3-fluorophenyl)piperazine-1-carboxamide] are 555 fold and 18 nM.
The matching figures for `CCN1CCN(C(=O)N(Cc2ccc(-c3nnc(C(F)F)o3)cc2)c2ccc(F)cc2)CC1` [Compound 21886, N-(4-(5-(Difluoromethyl)-1,3,4-oxadiazol-2-yl)benzyl)-4-ethyl-N-(4-fluorophenyl)piperazine-1-carboxamide]: 218 fold and 46 nM.
The matching figures for `CCN1CCN(C(=O)N(Cc2ccc(-c3nnc(C(F)F)o3)cc2F)c2ccc(F)cc2)CC1` [Compound 21887, N-(4-(5-(Difluoromethyl)-1,3,4-oxadiazol-2-yl)-2-fluorobenzyl)-4-ethyl-N-(4-fluorophenyl)piperazine-1-carboxamide]: 218 fold and 46 nM.
As to `CCN1CCN(C(=O)N(Cc2ccc(-c3nnc(C(F)F)o3)cn2)c2ccc(F)cc2)CC1` [Compound 21888, N-((5-(5-(Difluoromethyl)-1,3,4-oxadiazol-2-yl)pyridin-2-yl)methyl)-4-ethyl-N-(4-fluorophenyl)piperazine-1-carboxamide], the “HDAC6 selectivity (fold)” value was 388 fold and the IC50 was 26 nM.
On to `CCN1CCN(C(=O)N(Cc2ccc(-c3nnc(C(F)F)o3)cc2)c2cccc(OC)c2)CC1` [Compound 21889, N-(4-(5-(Difluoromethyl)-1,3,4-oxadiazol-2-yl)benzyl)-4-ethyl-N-(3-methoxyphenyl)piperazine-1-carboxamide], for which the “HDAC6 selectivity (fold)” value was 103 fold and the IC50 was determined as 98 nM.
Take `CCN1CCN(C(=O)N(Cc2ccc(-c3nnc(C(F)F)o3)cc2F)c2cccc(OC)c2)CC1` [Compound 21890, N-(4-(5-(Difluoromethyl)-1,3,4-oxadiazol-2-yl)-2-fluorobenzyl)-4-ethyl-N-(3-methoxyphenyl)piperazine-1-carboxamide]: the “HDAC6 selectivity (fold)” value was 185 fold and the IC50 worked out at 54 nM.
`CCN1CCN(C(=O)N(Cc2ccc(-c3nnc(C(F)F)o3)cn2)c2cccc(OC)c2)CC1` [Compound 21891, N-((5-(5-(Difluoromethyl)-1,3,4-oxadiazol-2-yl)pyridin-2-yl)methyl)-4-ethyl-N-(3-methoxyphenyl)piperazine-1-carboxamide]: the “HDAC6 selectivity (fold)” value turned out to be 174 fold and the IC50 stood at 57 nM.
The matching figures for `CC(C)(C)CN1CCN(Cc2ccc(N(Cc3ccc(-c4nnc(C(F)F)o4)cc3F)C(=O)N3CCS(=O)(=O)CC3)cc2)CC1` [Compound 21895, N-(4-(5-(difluoromethyl)-1,3,4-oxadiazol-2-yl)-2-fluorobenzyl)-N-(4-((4-neopentylpiperazin-1-yl)methyl)phenyl)thiomorpholine-4-carboxamide 1,1-dioxide]: 42 fold and 236 nM.
For the molecule `O=C(N1CCS(=O)(=O)CC1)N(Cc1ccc(-c2nnc(C(F)F)o2)cc1F)c1ccc(CN2CCN(Cc3ccccc3)CC2)cc1` [Compound 21900, N-(4-((4-benzylpiperazin-1-yl)methyl)phenyl)-N-(4-(5-(difluoromethyl)-1,3,4-oxadiazol-2-yl)-2-fluorobenzyl)thiomorpholine-4-carboxamide 1,1-dioxide], the “HDAC6 selectivity (fold)” value worked out at 53 fold and the IC50 was 190 nM.
With `CC(C)(F)CN1CCN(Cc2ccc(N(Cc3ccc(-c4nnc(C(F)F)o4)cc3F)C(=O)N3CCS(=O)(=O)CC3)cc2)CC1` [Compound 21901, N-(4-(5-(difluoromethyl)-1,3,4-oxadiazol-2-yl)-2-fluorobenzyl)-N-(4-((4-(2-fluoro-2-methylpropyl)piperazin-1-yl)methyl)phenyl)thiomorpholine-4-carboxamide 1,1-dioxide], the “HDAC6 selectivity (fold)” value came out at 29 fold and the IC50 came out at 349 nM.
The matching figures for `O=C(N1CCS(=O)(=O)CC1)N(Cc1ccc(-c2nnc(C(F)F)o2)cc1F)c1ccc(CN2CCN(CC(F)(F)F)CC2)cc1` [Compound 21902, N-(4-(5-(difluoromethyl)-1,3,4-oxadiazol-2-yl)-2-fluorobenzyl)-N-(4-((4-(2,2,2-trifluoroethyl)piperazin-1-yl)methyl)phenyl)thiomorpholine-4-carboxamide 1,1-dioxide]: 25 fold and 398 nM.
Consider `O=C(N1CCOCC1)N(Cc1ccc(-c2nnc(C(F)F)o2)cc1F)C12CC3CC(CC(C3)C1)C2` [Compound 21910, N-((3s,5s,7s)-adamantan-1-yl)-N-(4-(5-(difluoromethyl)-1,3,4-oxadiazol-2-yl)-2-fluorobenzyl)morpholine-4-carboxamide], for which the “HDAC6 selectivity (fold)” value stood at 21 fold and the IC50 was 470 nM.
In the same order, the values of `O=C(N1CCS(=O)(=O)CC1)N(Cc1ccc(-c2nnc(C(F)F)o2)cc1F)c1ccc(CN2CC(F)(F)C2)cc1` [Compound 21914, N-(4-((3,3-difluoroazetidin-1-yl)methyl)phenyl)-N-(4-(5-(difluoromethyl)-1,3,4-oxadiazol-2-yl)-2-fluorobenzyl)thiomorpholine-4-carboxamide 1,1-dioxide] are 63 fold and 158 nM.
Consider `O=C(N1CCS(=O)(=O)CC1)N(Cc1ccc(-c2nnc(C(F)F)o2)cc1F)c1ccc(CN2CCC(F)(F)C2)cc1` [Compound 21915, N-(4-(5-(difluoromethyl)-1,3,4-oxadiazol-2-yl)-2-fluorobenzyl)-N-(4-((3,3-difluoropyrrolidin-1-yl)methyl)phenyl)thiomorpholine-4-carboxamide 1,1-dioxide], for which the “HDAC6 selectivity (fold)” value is 62 fold and the IC50 was 160 nM.
As for `O=C(N1CCS(=O)(=O)CC1)N(Cc1ccc(-c2nnc(C(F)F)o2)cc1F)c1ccc(CN2CCC(F)(F)CC2)cc1` [Compound 21916, N-(4-(5-(difluoromethyl)-1,3,4-oxadiazol-2-yl)-2-fluorobenzyl)-N-(4-((4,4-difluoropiperidin-1-yl)methyl)phenyl)thiomorpholine-4-carboxamide 1,1-dioxide], the “HDAC6 selectivity (fold)” value was 43 fold and the IC50 came to 232 nM.
Consider `CN(C)[C@@H]1CCN(Cc2ccc(N(Cc3ccc(-c4nnc(C(F)F)o4)cc3F)C(=O)N3CCS(=O)(=O)CC3)cc2)C1` [Compound 21917, (R)—N-(4-(5-(difluoromethyl)-1,3,4-oxadiazol-2-yl)-2-fluorobenzyl)-N-(4-((3-(dimethylamino)pyrrolidin-1-yl)methyl)phenyl)thiomorpholine-4-carboxamide 1,1-dioxide], for which the “HDAC6 selectivity (fold)” value worked out at 151 fold and the IC50 stood at 66 nM.
Take `O=C(N1CCS(=O)(=O)CC1)N(Cc1ccc(-c2nnc(C(F)F)o2)cc1F)c1ccc(CN2CCOCC2)cc1` [Compound 21918, N-(4-(5-(difluoromethyl)-1,3,4-oxadiazol-2-yl)-2-fluorobenzyl)-N-(4-(morpholinomethyl)phenyl)thiomorpholine-4-carboxamide 1,1-dioxide]: the “HDAC6 selectivity (fold)” value stood at 52 fold and the IC50 came out at 193 nM.
